In US20070254312A1, “Protein Kinase Inhibitors and Methods for Identiying Same” (priority 2004, published 2007):
Read-outs that look alike come from different tables or passages of the source. Starred links: 1 amine or outer side, 2 acyl side, 3 side chain; linkers in the order of their positions; H or OH if unused. Non-standard residues stand in square brackets, D forms with d. Residues, ends and D or L forms follow the SMILES beside them. Groups on a side chain read outwards from the residue. *: point of attachment. X2 = N=C(N)NCCC[C@@H](C(=O)*)N(Cc1cccc(O)c1O)Cc1cccc(O)c1O; X1 = N=C(N)NCCC[C@@H](C(=O)[*:2])N(Cc1cccc(O)c1O)[*:1]; Benzoyl(4-NO2) = O=C(c1ccc([N+](=O)[O-])cc1)*; Cysteamide = C(CS[*:3])N[*:1]; Dap = NC[C@H](N)C(=O)O

Tests used:
PKCδ [1] = molecular target: T1, PKCδ (Homo sapiens, UniProt Q05655); test: PKC δ screen, IC50 and Ki determination (Example 2); format: biochemical; design: purchased Panvera; conditions: for Fold selectivity (IC50), PKC δ: relative to most potently inhibited isoform (=1): δ for F, ζ for G
T1 sequence (Q05655 whole entry, canonical isoform): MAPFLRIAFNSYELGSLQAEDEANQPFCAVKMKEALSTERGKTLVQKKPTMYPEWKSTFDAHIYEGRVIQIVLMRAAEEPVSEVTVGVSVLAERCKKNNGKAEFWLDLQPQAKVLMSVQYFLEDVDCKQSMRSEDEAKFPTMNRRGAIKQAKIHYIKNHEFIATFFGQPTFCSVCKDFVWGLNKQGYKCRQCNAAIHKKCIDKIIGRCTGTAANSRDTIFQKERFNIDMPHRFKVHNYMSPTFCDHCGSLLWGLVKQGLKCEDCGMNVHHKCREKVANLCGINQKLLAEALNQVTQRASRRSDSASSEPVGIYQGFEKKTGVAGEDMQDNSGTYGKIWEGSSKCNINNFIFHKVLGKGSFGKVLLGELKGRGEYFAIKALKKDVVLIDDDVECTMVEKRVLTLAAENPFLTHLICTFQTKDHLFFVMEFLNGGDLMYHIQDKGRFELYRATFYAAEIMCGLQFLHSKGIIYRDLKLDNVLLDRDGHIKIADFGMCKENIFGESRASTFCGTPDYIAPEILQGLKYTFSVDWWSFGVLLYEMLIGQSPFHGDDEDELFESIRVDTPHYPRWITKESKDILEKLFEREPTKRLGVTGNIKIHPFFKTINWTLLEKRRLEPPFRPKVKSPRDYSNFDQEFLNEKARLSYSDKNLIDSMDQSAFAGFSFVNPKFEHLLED
Protocol: (§1) Protein Kinase C Assays. The peptides […] (for PKC α, β and γ) and […] (for PKC δ, ε, θ, η, τ, and ζ) were used as substrates. […] Total reaction volume in each well was 50 μL. […] Following an additional 5 min incubation at ambient temperature, 75 μL from each reaction well was transferred into each well of a Unifilter (P81 cellulose phosphate paper) assay plate and washed four times with 0.1% phosphoric acid in water. […] Lead compounds from the library were combined into a single 96 well plate and re-assayed as described above in order to identify the best inhibitor. IC50 determinations of resynthesized inhibitor leads for individual PKC isoforms. Assays were performed in triplicate at pH 7.5 and thermostatically maintained at 30° C. using a Boekel constant temperature device. […] The IC50 values for pure compounds as inhibitors were calculated based on the experimental data using GraFit (Erithacus Software Limited). Protein kinase C δ, ε, θ, and η: As described for PKC α, β, and γ except that the assay was performed in the absence of CaCl2. Protein kinase C τ and ζ: As described for PKC α, β, and γ except that the assay was performed in the absence of CaCl2 and DAG. […] Total reaction volume in each well was 50 μL. All the wells were tested in the same plate and each concentration was tested in triplicate. […] Double reciprocal plots were obtained at different concentrations of substrates. Ki values were calculated using Enzyme Kinetics, SigmaPlot (SPSS Inc.).

PKCθ = PKCθ (Homo sapiens, UniProt Q04759); test: IC50 determination for individual PKC isoforms (Example 2); format: biochemical; design: purchased Panvera; conditions: for Fold selectivity (IC50), PKC θ: relative to most potently inhibited isoform (=1): δ for F, ζ for G
Chain of PKCθ (Q04759 whole entry, canonical isoform): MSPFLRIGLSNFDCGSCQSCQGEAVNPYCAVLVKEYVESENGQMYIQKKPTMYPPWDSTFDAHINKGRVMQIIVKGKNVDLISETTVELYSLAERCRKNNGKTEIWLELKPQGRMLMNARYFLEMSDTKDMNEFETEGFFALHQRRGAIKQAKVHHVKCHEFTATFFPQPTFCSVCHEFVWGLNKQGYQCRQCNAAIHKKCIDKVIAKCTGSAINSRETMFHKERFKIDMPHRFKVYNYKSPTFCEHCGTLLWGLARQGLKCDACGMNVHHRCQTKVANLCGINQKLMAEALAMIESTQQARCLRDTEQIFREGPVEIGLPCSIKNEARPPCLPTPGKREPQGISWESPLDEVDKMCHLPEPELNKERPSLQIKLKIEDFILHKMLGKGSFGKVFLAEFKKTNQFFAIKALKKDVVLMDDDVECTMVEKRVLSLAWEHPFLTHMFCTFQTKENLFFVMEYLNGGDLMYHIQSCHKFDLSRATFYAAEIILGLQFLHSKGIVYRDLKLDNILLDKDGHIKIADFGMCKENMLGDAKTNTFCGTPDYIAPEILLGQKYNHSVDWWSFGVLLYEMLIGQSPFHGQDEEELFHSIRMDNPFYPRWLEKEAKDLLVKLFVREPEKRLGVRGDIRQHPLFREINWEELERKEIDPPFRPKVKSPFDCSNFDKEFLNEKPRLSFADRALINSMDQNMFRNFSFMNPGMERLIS
Protocol: (§2) Protein Kinase C Assays. The peptides […] (for PKC α, β and γ) and […] (for PKC δ, ε, θ, η, τ, and ζ) were used as substrates. IC50 determinations of resynthesized inhibitor leads for individual PKC isoforms. Assays were performed in triplicate at pH 7.5 and thermostatically maintained at 30° C. using a Boekel constant temperature device. […] The IC50 values for pure compounds as inhibitors were calculated based on the experimental data using GraFit (Erithacus Software Limited). Protein kinase C δ, ε, θ, and η: As described for PKC α, β, and γ except that the assay was performed in the absence of CaCl2. Protein kinase C τ and ζ: As described for PKC α, β, and γ except that the assay was performed in the absence of CaCl2 and DAG.

PKCγ = PKCγ (Homo sapiens, UniProt P05129); test: as above; format: biochemical; design: purchased Panvera; conditions: for Fold selectivity (IC50), PKC γ: relative to most potently inhibited isoform (=1): δ for F, ζ for G
Protocol: as §2

PKCε [2] = molecular target: T2, PKCε (Homo sapiens, UniProt Q02156); test: as above; format: biochemical; design: purchased Panvera; conditions: for Fold selectivity (IC50), PKC ε: relative to most potently inhibited isoform (=1): δ for F, ζ for G
T2 sequence (Q02156 1-737): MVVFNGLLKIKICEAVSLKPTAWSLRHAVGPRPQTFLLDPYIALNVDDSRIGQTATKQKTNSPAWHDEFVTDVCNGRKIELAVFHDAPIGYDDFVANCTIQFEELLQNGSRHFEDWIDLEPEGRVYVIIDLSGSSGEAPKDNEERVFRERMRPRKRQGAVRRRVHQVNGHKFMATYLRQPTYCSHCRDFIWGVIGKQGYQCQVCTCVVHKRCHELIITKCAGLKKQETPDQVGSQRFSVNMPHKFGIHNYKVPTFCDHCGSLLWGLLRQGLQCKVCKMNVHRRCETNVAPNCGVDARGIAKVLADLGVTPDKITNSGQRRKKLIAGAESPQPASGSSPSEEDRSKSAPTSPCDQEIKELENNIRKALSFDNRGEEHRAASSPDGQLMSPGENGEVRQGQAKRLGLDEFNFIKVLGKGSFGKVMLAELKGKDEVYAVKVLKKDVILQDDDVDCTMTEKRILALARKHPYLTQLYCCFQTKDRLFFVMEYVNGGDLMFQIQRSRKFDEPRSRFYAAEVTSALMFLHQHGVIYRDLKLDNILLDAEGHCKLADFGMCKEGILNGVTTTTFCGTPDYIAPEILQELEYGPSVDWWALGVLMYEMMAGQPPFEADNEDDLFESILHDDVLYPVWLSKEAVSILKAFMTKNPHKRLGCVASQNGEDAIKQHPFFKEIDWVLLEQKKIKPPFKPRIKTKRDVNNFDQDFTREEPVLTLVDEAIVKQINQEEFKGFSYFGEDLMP
Protocol: as §2

PKCη = PKCη (Homo sapiens, UniProt P24723); test: as above; format: biochemical; design: purchased Panvera; conditions: for Fold selectivity (IC50), PKC η: relative to most potently inhibited isoform (=1): δ for F, ζ for G
Chain of PKCη (P24723 whole entry, canonical isoform): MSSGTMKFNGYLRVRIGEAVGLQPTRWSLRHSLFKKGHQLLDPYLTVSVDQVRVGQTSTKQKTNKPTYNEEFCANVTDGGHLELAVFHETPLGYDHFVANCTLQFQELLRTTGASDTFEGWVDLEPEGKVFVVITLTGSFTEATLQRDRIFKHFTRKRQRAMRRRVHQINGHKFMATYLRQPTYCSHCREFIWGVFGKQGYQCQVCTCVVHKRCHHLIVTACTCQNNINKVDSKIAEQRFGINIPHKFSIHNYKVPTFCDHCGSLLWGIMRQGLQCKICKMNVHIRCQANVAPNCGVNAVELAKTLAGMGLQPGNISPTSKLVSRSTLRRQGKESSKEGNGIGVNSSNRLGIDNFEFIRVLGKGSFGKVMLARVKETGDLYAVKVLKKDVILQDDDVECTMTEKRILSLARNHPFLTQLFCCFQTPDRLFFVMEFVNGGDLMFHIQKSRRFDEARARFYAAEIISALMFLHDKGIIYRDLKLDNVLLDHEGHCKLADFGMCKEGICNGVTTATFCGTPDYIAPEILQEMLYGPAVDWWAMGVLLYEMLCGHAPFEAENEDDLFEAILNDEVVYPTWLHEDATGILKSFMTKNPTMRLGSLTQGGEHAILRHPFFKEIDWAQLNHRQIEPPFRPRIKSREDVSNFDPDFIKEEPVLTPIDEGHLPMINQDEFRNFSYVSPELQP
Protocol: as §2

PKCζ [3] = molecular target: T3, PKCζ (Homo sapiens, UniProt Q05513); test: PKC ζ screen, IC50 and Ki determination (Example 2); format: biochemical; design: purchased Panvera; conditions: for Fold selectivity (IC50), PKC ζ: relative to most potently inhibited isoform (=1): δ for F, ζ for G
T3 sequence (Q05513 1-592): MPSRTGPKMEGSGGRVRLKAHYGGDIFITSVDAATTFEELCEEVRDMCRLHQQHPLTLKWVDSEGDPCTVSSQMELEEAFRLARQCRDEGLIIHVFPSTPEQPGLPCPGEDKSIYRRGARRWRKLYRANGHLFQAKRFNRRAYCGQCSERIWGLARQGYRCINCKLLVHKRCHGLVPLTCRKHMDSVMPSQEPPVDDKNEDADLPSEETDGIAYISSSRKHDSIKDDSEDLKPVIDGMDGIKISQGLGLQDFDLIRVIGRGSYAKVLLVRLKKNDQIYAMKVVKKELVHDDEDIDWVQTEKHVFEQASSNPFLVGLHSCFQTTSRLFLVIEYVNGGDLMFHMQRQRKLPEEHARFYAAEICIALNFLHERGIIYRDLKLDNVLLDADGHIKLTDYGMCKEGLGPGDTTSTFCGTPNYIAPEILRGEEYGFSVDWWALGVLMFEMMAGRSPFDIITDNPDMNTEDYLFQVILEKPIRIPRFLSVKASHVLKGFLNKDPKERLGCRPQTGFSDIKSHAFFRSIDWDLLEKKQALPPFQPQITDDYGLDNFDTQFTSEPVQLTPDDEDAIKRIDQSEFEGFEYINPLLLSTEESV
Protocol: as §1

PKC ι = molecular target: T4, PKC ι (Homo sapiens, UniProt P41743); test: IC50 determination for individual PKC isoforms (Example 2); format: biochemical; conditions: for Fold selectivity (IC50), PKC ι: relative to most potently inhibited isoform (=1): δ for F, ζ for G, text prints τ
T4 construct: purchased Panvera
T4 sequence (P41743 1-596): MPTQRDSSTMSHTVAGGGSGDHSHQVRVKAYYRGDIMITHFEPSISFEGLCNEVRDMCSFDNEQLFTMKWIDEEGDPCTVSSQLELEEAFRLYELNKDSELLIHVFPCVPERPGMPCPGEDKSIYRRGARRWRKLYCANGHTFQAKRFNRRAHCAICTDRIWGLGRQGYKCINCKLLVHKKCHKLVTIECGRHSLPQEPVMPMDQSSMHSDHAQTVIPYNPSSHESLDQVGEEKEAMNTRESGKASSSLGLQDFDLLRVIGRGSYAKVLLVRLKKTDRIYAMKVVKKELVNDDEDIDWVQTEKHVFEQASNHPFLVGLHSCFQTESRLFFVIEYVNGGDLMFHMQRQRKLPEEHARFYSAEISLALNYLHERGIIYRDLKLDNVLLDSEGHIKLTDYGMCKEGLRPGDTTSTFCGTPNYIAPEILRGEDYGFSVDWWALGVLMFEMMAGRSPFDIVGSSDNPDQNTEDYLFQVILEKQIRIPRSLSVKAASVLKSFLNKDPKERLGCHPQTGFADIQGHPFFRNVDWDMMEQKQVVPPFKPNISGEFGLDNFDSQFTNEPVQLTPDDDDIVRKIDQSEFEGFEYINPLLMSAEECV
Protocol: as §2

PKC βI = molecular target: T5, PKC βI (Homo sapiens, UniProt P05771); test: as above; format: biochemical; conditions: for Fold selectivity (IC50), PKC β1: relative to most potently inhibited isoform (=1): δ for F, ζ for G
T5 construct: purchased Panvera
T5 sequence (P05771 whole entry, canonical isoform): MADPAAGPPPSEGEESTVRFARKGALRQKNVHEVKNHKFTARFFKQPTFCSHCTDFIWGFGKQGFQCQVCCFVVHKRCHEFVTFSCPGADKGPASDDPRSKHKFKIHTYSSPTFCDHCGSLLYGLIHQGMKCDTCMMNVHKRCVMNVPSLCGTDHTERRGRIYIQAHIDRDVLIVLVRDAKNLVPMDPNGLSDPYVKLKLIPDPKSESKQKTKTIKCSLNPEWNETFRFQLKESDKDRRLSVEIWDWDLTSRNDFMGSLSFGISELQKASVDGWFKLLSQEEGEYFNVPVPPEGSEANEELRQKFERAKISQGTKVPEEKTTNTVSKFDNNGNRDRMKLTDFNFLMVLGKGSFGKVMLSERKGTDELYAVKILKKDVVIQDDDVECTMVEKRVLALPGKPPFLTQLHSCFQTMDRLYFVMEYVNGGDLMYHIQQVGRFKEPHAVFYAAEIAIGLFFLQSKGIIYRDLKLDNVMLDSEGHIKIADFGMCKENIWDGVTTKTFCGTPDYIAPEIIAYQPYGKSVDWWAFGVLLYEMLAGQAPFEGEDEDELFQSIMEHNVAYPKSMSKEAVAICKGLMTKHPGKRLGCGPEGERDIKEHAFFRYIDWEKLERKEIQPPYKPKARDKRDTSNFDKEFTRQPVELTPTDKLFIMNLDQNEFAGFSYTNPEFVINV
Protocol: as §2

PKCα [4] = molecular target: T6, PKCα (Homo sapiens, UniProt P17252); test: as above; format: biochemical; conditions: for Fold selectivity (IC50), PKC α: relative to most potently inhibited isoform (=1): δ for F, ζ for G
Protocol: as §2

PKCα [5] = molecular target: T6, PKCα; conditions: cited from earlier work
PKCζ [6] = molecular target: T3, PKCζ; design: purchased Panvera; conditions: literature values; relative to most potently inhibited isoform (=1); cited from earlier work
PKCδ [7] = molecular target: T1, PKCδ; design: purchased Panvera; conditions: literature values; relative to most potently inhibited isoform (=1); cited from earlier work
PKC β1 = PKC β1 (Homo sapiens, UniProt P05771); conditions: literature values; relative to most potently inhibited isoform (=1); cited from earlier work
Chain of PKC β1 (P05771 whole entry, canonical isoform): as the sequence (P05771 whole entry, canonical isoform) above

PKCε [8] = molecular target: T2, PKCε; design: purchased Panvera; conditions: literature values; relative to most potently inhibited isoform (=1); cited from earlier work

SMILES	IC50 (PKCδ [1]) [nM]	Fold selectivity (IC50), PKC δ (PKCδ [1]) [fold]	Fold selectivity (IC50), PKC θ (PKCθ) [fold]	Fold selectivity (IC50), PKC γ (PKCγ) [fold]	Fold selectivity (IC50), PKC ε (PKCε [2]) [fold]	Fold selectivity (IC50), PKC η (PKCη) [fold]	Fold selectivity (IC50), PKC ζ (PKCζ [3]) [fold]	Fold selectivity (IC50), PKC ι (PKC ι) [fold]	Fold selectivity (IC50), PKC β1 (PKC βI) [fold]	Fold selectivity (IC50), PKC α (PKCα [4]) [fold]	further results
CSCC[C@H](NC(=O)[C@H](Cc1ccccc1)NC(=O)[C@H](CNC(C)=O)NC(=O)CNC(=O)[C@H](CCC(N)=O)NC(=O)[C@H](CCCNC(=N)N)NC(=O)[C@H](CCCNC(=N)N)NC(C)=O)C(=O)N[C@@H](Cc1ccc(O)cc1)C(=O)N[C@@H](Cc1ccccc1)C(=O)NCCS [Compound A] (Ac-RRQG[Dap](Ac)FMYF-Cysteamide)	50000	–	–	–	–	–	–	–	–	–	–
CSCC[C@H](NC(=O)[C@H](Cc1ccccc1)NC(=O)[C@H](CNC(=O)CNC(=O)c1ccc([N+](=O)[O-])cc1)NC(=O)CNC(=O)[C@H](CCC(N)=O)NC(=O)[C@H](CCCNC(=N)N)NC(=O)[C@@H](N)CCCNC(=N)N)C(=O)N[C@@H](Cc1ccc(O)cc1)C(=O)N[C@@H](Cc1ccccc1)C(=O)NCCS [Compound E] (H-RRQG[Dap]([Gly-Benzoyl(4-NO2)])FMYF-Cysteamide)	25 ± 2	–	–	–	–	–	–	–	–	–	Selectivity (Compound E), PKC δ (PKCδ [1]; IC50 relative to βI (=1)): 3.1; Selectivity (Compound E), PKC θ (PKCθ; IC50 relative to βI (=1)): 1775; Selectivity (Compound E), PKC γ (PKCγ; IC50 relative to βI (=1)): 550; Selectivity (Compound E), PKC ε (PKCε [2]; IC50 relative to βI (=1)): 287; Selectivity (Compound E), PKC η (PKCη; IC50 relative to βI (=1)): 1650; IC50 (PKCζ [3]): 22 ± 3 nM; Selectivity (Compound E), PKC ζ (PKCζ [3]; IC50 relative to βI (=1)): 2.8; Selectivity (Compound E), PKC ι (PKC ι; IC50 relative to βI (=1)): 94; IC50 (PKC βI): 8 ± 0.5 nM; Selectivity (Compound E), PKC βI (PKC βI; IC50 relative to βI (=1)): 1; IC50 (PKCα [4]): 3100 ± 200 nM; Selectivity (Compound E), PKC α (PKCα [4]; IC50 relative to βI (=1)): 387
CSCC[C@H](NC(=O)[C@H](Cc1ccccc1)NC(=O)[C@H](CNC(=O)CNC(=O)c1ccc([N+](=O)[O-])cc1)NC(=O)CNC(=O)[C@H](CCC(N)=O)NC(=O)[C@H](CCCNC(=N)N)NC(=O)[C@H](CCCNC(=N)N)NCc1cccc(O)c1O)C(=O)N[C@@H](Cc1ccc(O)cc1)C(=O)N[C@@H](Cc1ccccc1)C(=O)NCCS [Compound F] (H-[X1]RQG[Dap]([Gly-Benzoyl(4-NO2)])FMYF-Cysteamide)	18 ± 2	1	761	500	489	683	200	26	172	944	Ki (PKCδ [1]; versus peptide substrate): 8 ± 1 nM
CSCC[C@H](NC(=O)[C@H](Cc1ccccc1)NC(=O)[C@H](CNC(=O)CNC(=O)c1ccc([N+](=O)[O-])cc1)NC(=O)CNC(=O)[C@H](CCC(N)=O)NC(=O)[C@H](CCCNC(=N)N)NC(=O)[C@H](CCCNC(=N)N)N(Cc1cccc(O)c1O)Cc1cccc(O)c1O)C(=O)N[C@@H](Cc1ccc(O)cc1)C(=O)N[C@@H](Cc1ccccc1)C(=O)NCCS [Compound G] (X2-RQG[Dap]([Gly-Benzoyl(4-NO2)])FMYF-Cysteamide)	5200 ± 100	693	2227	5093	4600	2040	1	1493	730	6333	–
CN(C)CCCn1cc(C2=C(c3c[nH]c4ccccc34)C(=O)NC2=O)c2ccccc21 [Gö6850]	–	–	–	–	–	–	–	–	–	–	IC50 (PKCα [5]; literature value, read-out: IC50 of the most potently inhibited isoform, PKC α (in parentheses)): 8.4 nM; Fold selectivity (IC50), PKC α (PKCα [5]; literature values, relative to most potently inhibited isoform (=1)): 1 fold; Fold selectivity (IC50), PKC ζ (PKCζ [6]): 690 fold; Fold selectivity (IC50), PKC δ (PKCδ [7]): 25 fold; Fold selectivity (IC50), PKC β1 (PKC β1): 2 fold; Fold selectivity (IC50), PKC ε (PKCε [8]): 16 fold
